Columns and labels:
[1] = test system: rice; experiment: Root growth-promoting activity by rice seed treatment (Example 12); format: in vivo, Oriza sativa L. japonica; conditions: rice seeds treated with 10,000 ppm acetone solution; 4 days dark at 30° C. then 35 days greenhouse
Description: With respect to the chemical substance Ic3-1 and the chemical substance Ic7-1 (which inhibit intracellular signaling from a plant-derived cytokinin receptor of a cell) selected in Example 7, a main root-growth promoting activity induced by seed treatment was evaluated using rice (Oriza sativa L. japonica). The chemical substance was dissolved in acetone to prepare a 10,000 ppm solution. The acetone chemical substance solution (300 μl) thus prepared was put in an eppendorf tube. Then, 15 seeds were put in the eppendorf tube. The resulting mixture was mixed for about 30 seconds. The seeds thus chemical-treated were spread and dried on a filter paper.
About 820 ml of culture soil was placed in a plastic container (120 mm in length, 97 mm in height) with a hole in the bottom. The chemical-treated seeds were sowed in the plastic container (15 seeds per plastic container). The seeds were cultivated in a dark place at 30° C. for 4 days and then cultivated in a greenhouse for 35 days. Roots of the plant thus cultivated were removed and the soil adhered to the plant was washed away, followed by freeze-drying. Then, the weight of roots after freeze-drying was measured. A test was repeated 3 times for each treatment section, and an average was determined.

[2] = test system: hypocotyl of Arabidopsis thaliana; experiment: Plant differentiation-promoting activity, adventitious root formation from hypocotyl (Example 13); format: in vivo, Arabidopsis thaliana Columbia; conditions: agar medium with trans-zeatin 0.01 ppm; all test sections, final concentration 6 ppm, 2 ppm, 0.6 ppm or 0.2 ppm
Description: With respect to the chemical substance Ic3-1 and the chemical substance Ic7-1 (which inhibit intracellular signaling from a plant-derived cytokinin receptor of a cell) selected in Example 7, a plant differentiation-promoting activity was evaluated by examining an adventitious root formation activity using an hypocotyl of Arabidopsis thaliana Columbia.
First, an agar medium for sowing Arabidopsis thaliana was prepared. The agar medium contains, as components per 1 liter of an aqueous solution, 1 parcel of mixed salts for Murashige-Scoog plant medium (Wako Pure Chemical Industries, Ltd.) for 1 liter, 10 g of sucrose, 10 ml of an aqueous 5% MES (2-(N-Morpholino)ethanesulfonic acid) solution adjusted to pH 5.7 with potassium hydroxide, 100 mg of inositol, 1 ml of vitamins stock solution (10 g of thiamine hydrochloride, 1 g of pyridoxine hydrochloride, and 1 g of nicotinic acid per 1 liter of an aqueous solution) and 8 g of agar. Then, the agar medium was subjected to autoclave at 120° C. for 20 minutes, dispensed to circular petri dishes, and then solidified.
Seeds of Arabidopsis thaliana (about 25 μl) were put in a 1.5 ml tube. Thereto was added 1 ml of a 10-fold diluted solution of a sodium hypochlorite solution (Nacalai Tesque) with sterilized distilled water. The seed were sterilized while stirring for about 1 minute with a tube mixer (TOMY, MT-360, MIXING SPEED10). […]

[3] = molecular target: T1, cytokinin receptor CRE1 (Arabidopsis thaliana, UniProt Q9C5U0, S567G/T1018A); experiment: Inhibition of intracellular signaling from plant-derived cytokinin receptor, growth of transformed yeast cell TM182-CRE1; format: cell-based; conditions: for Relative growth rate (%) in test section of test substance to control section, Transformed cell TM182-CRE1: 30° C., 24 hours, turbidity OD 600
T1 construct: expressed in transfected cells; host or cells: Saccharomyces cerevisiae TM182 (sln1Δ) transformed with p415CYC-CRE1
Method in brief: (§1)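 Yeast TM182-CRE1 (DOLU+Glu) or control TM182-p415CYC1 (DOLU+Gal), after 18 h preculture at 30° C and dilution to OD600=0.1, exposed to compound at 2 ppm plus trans-zeatin 0.6 ppm for 24 h at 30° C. OD600 vs DMSO control, blank-corrected; inhibition = 100 − relative growth %.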

[4] = test system: transformed cell TM182-p415CYC1; experiment: Control growth test with transformed yeast cell TM182-p415CYC1 (toxicity to yeast); format: cell-based; conditions: trans-zeatin 0.6 ppm; chemical substance 2 ppm; 30° C., 24 hours; turbidity OD 600
Method in brief: as §1

[5] = test system: rice; experiment: Root growth-promoting activity using rice, seed growth pouch (Example 11); format: in vivo, Oriza sativa L. japonica; conditions: 25° C., 7 days
Description: With respect to the chemical substance Ic3-1 and the chemical substance Ic7-1 (which inhibit intracellular signaling from a plant-derived cytokinin receptor of a cell) selected in Example 7, a main root-growth promoting activity was evaluated using rice (Oriza sativa L. japonica). Aqueous solutions of the chemical substance having different concentrations (10 ppm, 25 ppm, each containing 0.1% DMSO) were prepared. A naper towel was impregnated with 17 ml of the chemical solution, wherein the heavy paper was placed in a seed growth pouch for observation of root growth (177 mm×163 mm, manufactured by Daiki Rika Kogyo Co., Ltd.), and 3 rice seeds were sowed on the paper towel. The pouch was put in a plastic container, and then sealed. After culture in the light at 25° C. for 7 days, the length of a main root was measured. An average of 3 repeats was determined and a root growth rate was determined by the following equation. Root growth rate (%)=(Average main root length in chemical substance-treated section)/(Average main root length in control section)×100−100

[6] = molecular target: T1, cytokinin receptor CRE1; format: binding; conditions: radiolabel 2IP 10 nM; test substance 10 μM
Description: As the cytokinin labeled with a radioisotope of hydrogen, tritium so as to become highly radioactive, [3H]N-6-(isopent-2-enyl)Adenine manufactured by Amersham Biosciences (hereinafter, referred to as radiolabel 2IP) was used.
First, 100 μg of the membrane protein fraction of the transformed cell TM182-p415CYC1, a radiolabel 2IP dilution at a predetermined concentration with a phosphate buffer and 1 μl of a test substance dilution at a predetermined concentration with DMSO were mixed in a phosphate buffer to prepare 100 μl of a reaction liquid. Next, the reaction liquid was allowed to stand in ice for 1 hour and then filtered with a glass filter GF/B (manufactured by Whatman) to collect a membrane protein fraction of the transformed cell TM182-p425GPD-CRE1. The glass filter was immersed in a liquid scintillation cocktail Ultima Gold (manufactured by PerkinElmer Co., Ltd.), and radioactivity was measured by a liquid scintillation counter. […] In order to eliminate influence of radioactivity due to nonspecific binding of the radiolabel 2IP, a value of radioactivity obtained in the test using the membrane protein fraction of the transformed cell TM182-p425GPD was subtracted from a value of radioactivity obtained in the test using the membrane protein fraction of the transformed cell TM182-p425GPD-CRE1.

[7] = test system: Arabidopsis thaliana; experiment: Root growth-promoting activity test (Example 9); format: in vivo; conditions: test final concentration 0.625 ppm (concentration with highest root growth rate); main root length vs control section, 22° C., 10 days
Method in brief: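 Arabidopsis seeds (10–20 per tube) were grown in Enshi standard medium containing the compound from DMSO at 0.001–10 ppm final, at 22° C in light for 10 days. Main root length was averaged over eight repeats and expressed as % of the control.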

[8] = test system: Arabidopsis thaliana; experiment: Root growth-promoting activity test (Example 22); format: in vivo; conditions: test final concentration 0.625 ppm (highest root growth rate); main root length vs control section, 22° C., 10 days
Method in brief: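 Arabidopsis thaliana seeds (10-20 per tube) grown in sterile Enshi standard medium containing compound at 0.001 ppm to 10 ppm final (DMSO vehicle), 22 °C, 10 days in light. Main root length measured, eight repeats averaged; root growth rate (%) = treated/control mean main root length ×100.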

[9] = trans-zeatin 0.6 ppm, chemical substance 2 ppm

T1 sequence (Q9C5U0 24-1080 S567G/T1018A): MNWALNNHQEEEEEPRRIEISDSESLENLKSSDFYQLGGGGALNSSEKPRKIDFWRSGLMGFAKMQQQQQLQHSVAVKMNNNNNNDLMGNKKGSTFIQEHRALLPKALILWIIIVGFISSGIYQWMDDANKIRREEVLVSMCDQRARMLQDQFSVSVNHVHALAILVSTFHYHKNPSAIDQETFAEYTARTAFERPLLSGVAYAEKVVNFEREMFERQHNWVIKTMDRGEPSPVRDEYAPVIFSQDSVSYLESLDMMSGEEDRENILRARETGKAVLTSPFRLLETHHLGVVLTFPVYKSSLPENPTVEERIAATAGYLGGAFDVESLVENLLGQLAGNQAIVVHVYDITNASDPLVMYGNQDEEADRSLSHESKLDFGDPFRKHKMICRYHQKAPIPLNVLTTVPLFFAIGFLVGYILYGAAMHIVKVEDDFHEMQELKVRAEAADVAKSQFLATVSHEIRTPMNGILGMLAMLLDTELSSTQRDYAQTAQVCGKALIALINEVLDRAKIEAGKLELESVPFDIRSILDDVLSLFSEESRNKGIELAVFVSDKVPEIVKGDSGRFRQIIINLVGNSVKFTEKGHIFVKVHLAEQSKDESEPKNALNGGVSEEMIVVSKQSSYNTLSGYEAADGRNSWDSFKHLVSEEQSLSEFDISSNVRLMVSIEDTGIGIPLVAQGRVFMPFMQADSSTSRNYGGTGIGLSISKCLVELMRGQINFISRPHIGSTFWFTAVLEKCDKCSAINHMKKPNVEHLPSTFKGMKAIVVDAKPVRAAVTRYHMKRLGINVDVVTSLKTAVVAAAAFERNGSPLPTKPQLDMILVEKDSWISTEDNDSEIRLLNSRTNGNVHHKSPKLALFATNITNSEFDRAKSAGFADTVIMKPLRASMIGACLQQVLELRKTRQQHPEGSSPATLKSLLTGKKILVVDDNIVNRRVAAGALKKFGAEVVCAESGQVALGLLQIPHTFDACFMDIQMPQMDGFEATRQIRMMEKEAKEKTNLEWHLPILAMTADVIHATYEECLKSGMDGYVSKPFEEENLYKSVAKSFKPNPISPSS

Row | SMILES | dry weight of roots per plant, % of the control section [1] [%] | adventitious root formation from the hypocotyl portion [2] | inhibition at 2 ppm ([3]; read-out: Activity (%) of test substance for inhibiting intracellular signaling from plant-derived cytokinin receptor of cell) [%] | Relative growth rate (%) in test section of test substance to control section, Transformed cell TM182-CRE1 [3, 9] [%] | Relative growth rate (%) in test section of test substance to control section, Transformed cell TM182-p415CYC1 [4] [%] | melting point [°C] | main root growth increase relative to the control section ([5]; 10 ppm) [%] | main root growth increase relative to the control section ([5]; 25 ppm) [%] | radioactivity of bound radiolabel 2IP compared with DMSO only or abscisic acid [6] | Root growth-promoting activity (root growth rate) [7] [%] | Root growth-promoting activity (root growth rate) [8] [%] | Activity (%) of test substance for inhibiting intracellular signaling from plant-derived cytokinin receptor of cell ([3]; trans-zeatin 0.6 ppm, chemical substance 2 ppm, = 100 − relative growth rate of TM182-CRE1) [%]
1 | OCCNc1nc(-c2ccccc2)c2cc(Cl)ccc2n1 [Ic3-1, 6-chloro-2-(2-hydroxyethylamino)-4-phenylquinazoline] | 119 | adventitious roots were formed | 94.6 | 5.4 | 114.1 | 137.9 | 17 | 20 |  |  |  | 
2 | OCCCCNc1nc(-c2ccccc2)c2cc(Cl)ccc2n1 [Ic3-4] |  |  |  | 1.4 | 106.4 |  |  |  | the radioactivity was decreased | 129.5 | 129.5 | 98.6
3 | C/C(=C\CNc1ncnc2nc[nH]c12)CO [trans-zeatin, reference compound] |  |  |  |  |  |  |  |  | the radioactivity was decreased |  |  | 

— patent publication US8722580B2, “Agent for inhibiting cytokinin signaling” (Sumitomo Chemical Company, Limited, priority 2006, dated 2014)
